The text below walks through data of patent US20110092547A1 (priority 2007, published 2011).

The experiment deals with T1, human DGAT1 (Homo sapiens, UniProt O75907).
T1 construct: made in house; host or cells: Sf9 insect cells (recombinant baculovirus); membrane fraction
T1 sequence (O75907 1-488): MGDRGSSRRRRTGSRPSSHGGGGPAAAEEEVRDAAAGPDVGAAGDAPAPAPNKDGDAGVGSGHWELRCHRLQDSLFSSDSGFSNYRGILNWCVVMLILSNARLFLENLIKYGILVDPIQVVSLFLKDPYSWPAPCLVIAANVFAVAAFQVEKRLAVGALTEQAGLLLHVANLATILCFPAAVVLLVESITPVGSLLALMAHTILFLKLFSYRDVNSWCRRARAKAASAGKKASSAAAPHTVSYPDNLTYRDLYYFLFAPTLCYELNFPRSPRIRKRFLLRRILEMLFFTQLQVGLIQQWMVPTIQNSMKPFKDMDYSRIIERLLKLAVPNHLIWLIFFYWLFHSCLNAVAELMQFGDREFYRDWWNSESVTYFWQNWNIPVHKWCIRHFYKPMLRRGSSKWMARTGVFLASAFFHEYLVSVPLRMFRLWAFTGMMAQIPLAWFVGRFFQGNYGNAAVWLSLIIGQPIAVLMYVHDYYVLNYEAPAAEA
Kind of experiment: Human enzyme assay, further developed assay (14C oleoyl CoA, 96 well plate). The format is biochemical. The conditions noted are these: human DGAT1 expressed in insect cell (sf9) membranes. Here is the method: The in vitro assay to identify DGAT1 inhibitors uses human DGAT1 expressed in insect cell membranes as the enzyme source (Proc. Natl. Acad. Sci. 1998, 95, 13018-13023). Briefly, sf9 cells were infected with recombinant baculovirus containing human DGAT1 coding sequences and harvested after 48 h. Cells were lysed by sonication and membranes isolated by centrifuging at 28000 rpm for 1 h at 4° C. on a 41% sucrose gradient. The membrane fraction at the interphase was collected, washed, and stored in liquid nitrogen.
In a further developed assay, DGAT1 activity was assayed by a modification of the method described by Coleman (Methods in Enzymology 1992, 209, 98-102). Compound at 0.00003-10 μM (final cone) was incubated with 25 μg/ml (final cone) membrane protein, 5 mM MgCl2, and 100 μM 1,2 dioleoyl-sn-glycerol in a total assay volume of 200 μl in a 96 well plate. The reaction was started by adding ^14C oleoyl coenzyme A (30 μM final concentration) and incubated at room temperature for 30 minutes. The reaction was stopped by adding 300 μl 2-propanol:heptane 7:1. Radioactive triolein product was separated into the organic phase by adding 200 μl heptane and 200 μl 0.1 M carbonate buffer pH 9.5. DGAT1 activity was quantified by counting aliquots of the upper heptane layer by liquid scintillography.
By IC50 is commonly meant the concentration needed to halve the response being measured. Turning to `COc1cc(NC(=O)c2nnc(Nc3ccc(F)c(F)c3)o2)cnc1O[C@H]1CC[C@@H](C(=O)O)CC1` [Example 57, (1s,4s)-4-(5-(5-(3,4-Difluorophenylamino)-1,3,4-oxadiazole-2-carboxamido)-3-methoxypyridin-2-yloxy)cyclohexanecarboxylic acid], the IC50 was 410 nM.

Consider `Cc1ccc(Nc2nnc(C(=O)Nc3ccc(O[C@H]4CC[C@H](C(=O)O)CC4)nc3)o2)cc1Cl` [Example 26, (1r,4r)-4-(5-(5-(3-chloro-4-methyl-phenylamino)-1,3,4-oxadiazole-2-carboxamido)pyridin-2-yloxy)cyclo-hexane-carboxylic acid], for which half-maximal inhibition (IC50) required 13 nM.

Turning to `COc1nc(O[C@H]2CC[C@@H](C(=O)O)CC2)ccc1NC(=O)c1nnc(Nc2ccc(F)c(Cl)c2)o1` [Example 52, (1s,4s)-4-(5-(5-(3-Chloro-4-fluorophenylamino)-1,3,4-oxadiazole-2-carboxamido)-6-methoxypyridin-2-yloxy)cyclohexanecarboxylic acid], the half-inhibitory concentration (IC50) turned out to be 23 nM.

Take `O=C(Nc1ccc(O[C@H]2CC[C@@H](C(=O)O)CC2)nc1)c1nnc(Nc2cccc(OC(F)(F)F)c2)o1` [Example 6, (1s,4s)-4-(5-(5-(3-(trifluoromethoxy)phenylamino)-1,3,4-oxadiazole-2-carboxamido)pyridin-2-yloxy)cyclohexanecarboxylic acid]: the half-inhibitory concentration (IC50) turned out to be 23 nM.

In turn, `CC(C)(C)c1ccc(Nc2nnc(C(=O)Nc3ccc(O[C@H]4CC[C@H](C(=O)O)CC4)nc3)o2)cc1` [Example 31, (1r,4r)-4-(5-(5-(4-tert-butylphenyl-amino)-1,3,4-oxadiazole-2-carboxamido)pyridin-2-yloxy)cyclo-hexane-carboxylic acid] came in with a half-inhibitory concentration (IC50) of 48 nM.

With `O=C(Nc1ccc(O[C@H]2CC[C@@H](C(=O)O)CC2)nc1F)c1nnc(Nc2cc(F)c(F)cc2F)o1` [Example 70, (1s,4s)-4-(6-Fluoro-5-(5-(2,4,5-trifluorophenylamino)-1,3,4-oxadiazole-2-carboxamido)pyridin-2-yloxy)cyclohexanecarboxylic acid], the IC50 is 4.1 nM.

`COC[C@]1(C(=O)O)CC[C@H](Oc2ccc(NC(=O)c3nnc(Nc4ccc(F)c(F)c4)o3)cn2)CC1` [Example 4, (1r,4r)-4-(5-(5-(3,4-Difluorophenylamino)-1,3,4-oxadiazole-2-carboxamido)pyridin-2-yloxy)-1-(methoxymethyl)cyclohexanecarboxylic acid] gave an IC50 of 15 nM.

In turn, `O=C(Nc1cnc(O[C@H]2CC[C@@H](C(=O)O)CC2)c(F)c1)c1nnc(Nc2ccc(F)c(F)c2)o1` [Example 60, (1s,4s)-4-(5-(5-(3,4-Difluorophenylamino)-1,3,4-oxadiazole-2-carboxamido)-3-fluoropyridin-2-yloxy)cyclohexanecarboxylic acid] yielded an IC50 of 14 nM.

For the molecule `CC(C)(C)c1ccc(Nc2nnc(C(=O)Nc3ccc(O[C@H]4CC[C@@H](C(=O)O)CC4)nc3)o2)cc1` [Example 9, (1s,4s)-4-(5-(5-(4-tert-butylphenylamino)-1,3,4-oxadiazole-2-carboxamido)pyridin-2-yloxy)cyclohexanecarboxylic acid], the midpoint of inhibition, the IC50, lay at 55 nM.

The molecule `C[C@]1(C(=O)O)CC[C@@H](Oc2ccc(NC(=O)c3nnc(Nc4ccc(F)c(F)c4)o3)cn2)CC1` [Example 68, (1s,4s)-4-(5-(5-(3,4-Difluorophenylamino)-1,3,4-oxadiazole-2-carboxamido)pyridin-2-yloxy)-1-methylcyclohexanecarboxylic acid] registered an IC50 of 8.3 nM.

In turn, `CC(C)c1ccc(Nc2nnc(C(=O)Nc3ccc(O[C@H]4C[C@@H](C(=O)O)C4)nc3)o2)cc1` [Example 63] came in with an IC50 of 30 nM.

The molecule `O=C(Nc1ccc(O[C@H]2CC[C@@H](C(=O)O)CC2)nc1)c1nnc(Nc2ccc(F)c(Cl)c2)o1` [Example 16, (1s,4s)-4-(5-(5-(3-chloro-4-fluorophenylamino)-1,1,4-oxadiazole-2-carboxamido)pyridin-2-yloxy)cyclohexanecarboxylic acid] had an IC50 of 3.8 nM.

As to `CC1(C(=O)O)CCC(Oc2ccc(NC(=O)c3nnc(Nc4ccc(Cl)cc4Cl)o3)cn2)CC1` (centres unmarked) [Example 67, 4-(5-((5-((2,4-dichlorophenyl)amino)-1,3,4-oxadiazole-2-carbonyl)amino)pyridin-2-yl)oxy-1-methylcyclohexane-1-carboxylic acid], the IC50 was 7.2 nM.

As to `O=C(Nc1cnc(O[C@H]2CC[C@@H](C(=O)O)CC2)cc1F)c1nnc(Nc2ccc(F)c(F)c2)o1` [Example 59, (1s,4s)-4-(5-(5-(3,4-Difluorophenylamino)-1,3,4-oxadiazole-2-carboxamido)-4-fluoropyridin-2-yloxy)cyclohexanecarboxylic acid], the IC50 was 8.6 nM.

Consider `COc1cc(Cl)ccc1Nc1nnc(C(=O)Nc2ccc(O[C@H]3CC[C@@H](C(=O)O)CC3)nc2)o1` [Example 71, (1s,4s)-4-(5-(5-(4-Chloro-2-methoxyphenylamino)-1,3,4-oxadiazole-2-carboxamido)pyridin-2-yloxy)cyclohexanecarboxylic acid], for which the IC50 is 34 nM.

In turn, `O=C(Nc1ccc(O[C@H]2CC[C@H](C(=O)O)CC2)nc1)c1nnc(Nc2cccc(OC(F)(F)F)c2)o1` [Example 34, (1r,4r)-4-(5-(5-(3-(trifluoromethoxy)phenylamino)-1,3,4-oxadiazole-2-carboxamido)pyridin-2-yloxy)cyclohexanecarboxylic acid] displayed an IC50 of 21 nM.

In the case of `CC(C)c1ccc(Nc2nnc(C(=O)Nc3ccc(O[C@H]4C[C@H](C(=O)O)C4)nc3)o2)cc1` [Example 64], 1.9 nM corresponded to half-maximal inhibition (IC50).

Molecule `O=C(Nc1ccc(O[C@H]2CC[C@@H](C(=O)O)CC2)nc1)c1nnc(Nc2ccc(F)c(C(F)(F)F)c2)o1` [Example 8, (1s,4s)-4-(5-(5-(4-fluoro-3-(trifluoromethyl)phenylamino)-1,3,4-oxadiazole-2-carboxamido)pyridin-2-yloxy)cyclohexanecarboxylic acid] displayed an IC50 of 10 nM.

With `O=C(Nc1cnc(O[C@H]2CC[C@@H](C(=O)O)CC2)cc1F)c1nnc(Nc2cc(F)c(F)cc2F)o1` [Example 58, (1s,4s)-4-(4-Fluoro-5-(5-(2,4,5-trifluorophenylamino)-1,3,4-oxadiazole-2-carboxamido)pyridin-2-yloxy)cyclohexanecarboxylic acid], the half-inhibitory concentration (IC50) was determined as 6.1 nM.

`COc1cc(O[C@H]2CC[C@@H](C(=O)O)CC2)ncc1NC(=O)c1nnc(Nc2ccc(Br)cc2Cl)o1` [Example 44] registered an IC50 of 54 nM.

`O=C(Nc1ccc(O[C@H]2CC[C@@H](C(=O)O)CC2)nc1)c1nnc(Nc2ccc(Cl)cc2Cl)o1` [Example 12, (1s,4s)-4-(5-(5-(2,4-dichlorophenylamino)-1,3,4-oxadiazole-2-carboxamido)pyridin-2-yloxy)cyclohexanecarboxylic acid] had an IC50 of 7.4 nM.

The molecule `O=C(Nc1ccc(O[C@H]2C[C@@H](C(=O)O)C2)nc1)c1nnc(Nc2ccc(F)c(F)c2)o1` [Example 65, cis-3-(5-(5-(3,4-difluorophenylamino)-1,3,4-oxadiazole-2-carboxamido)pyridin-2-yloxy)cyclobutanecarboxylic acid] gave an IC50 of 26 nM.

Regarding `O=C(O)c1ccc(Oc2ccc(NC(=O)c3nnc(Nc4ccc(F)c(Cl)c4)o3)cn2)cc1` [Example 39, 4-(5-(5-(3-Chloro-4-fluorophenylamino)-1,3,4-oxadiazole-2-carboxamido)pyridin-2-yloxy)benzoic acid], it took 7.5 nM to reach half-maximal inhibition (IC50).

For the molecule `Cc1cc(OC2CCC(C(=O)O)CC2)ncc1NC(=O)c1nnc(Nc2ccc(F)c(Cl)c2)o1` (centres unmarked) [Example 41, (1s,4s)-4-(5-(5-(3-Chloro-4-fluorophenylamino)-1,3,4-oxadiazole-2-carboxamido)-4-methylpyridin-2-yloxy) cyclohexanecarboxylic acid], the IC50 came out at 3.4 nM.

In turn, `O=C(O)C[C@H]1CC[C@@H](Oc2ccc(NC(=O)c3nnc(Nc4ccc(F)c(Cl)c4)o3)cn2)CC1` [Example 53, 2-((1s,4s)-4-(5-(5-(3-Chloro-4-fluorophenylamino)-1,3,4-oxadiazole-2-carboxamido)pyridin-2-yloxy)cyclohexyl)acetic acid] had an IC50 of 3.1 nM.

Molecule `O=C(Nc1ccc(O[C@H]2CC[C@@H](C(=O)O)CC2)nc1)c1nnc(Nc2cccc(Cl)c2)o1` [Example 7, (1s,4s)-4-(5-(5-(3-chlorophenylamino)-1,3,4-oxadiazole-2-carboxamido)pyridin-2-yloxy)cyclohexanecarboxylic acid] had an IC50 of 10 nM.
